Assay results as given in patent US12679843B2, “Pyrrolopyrimidine amines as complement inhibitors” (BioCryst Pharmaceuticals, Inc., priority 2020, dated 2026).

Target: Factor D (Homo sapiens, UniProt P00746)
Test: Factor D esterolytic assay (Z-Lys-SBzl thioester substrate, DTNB, 405 nm)
Format: biochemical
Details: substrate Z-Lys-SBzl 1.29 mM, 100 mM HEPES, 500 mM NaCl, pH 7.5, 10% DMSO, tested a minimum of three times
In short: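 Run in pH 7.5 HEPES (100 mM) with 500 mM NaCl and 10% DMSO, with compound preincubated at room temperature or not before adding 1.29 mM Z-Lys-SBzl. Free thiol released by Factor D reacts with DTNB, and rate is followed at 405 nm minus 690 nm over 600 s. IC50 derives from rate-based inhibition, minimum three replicates.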

Factor D, sequence (P00746 26-253): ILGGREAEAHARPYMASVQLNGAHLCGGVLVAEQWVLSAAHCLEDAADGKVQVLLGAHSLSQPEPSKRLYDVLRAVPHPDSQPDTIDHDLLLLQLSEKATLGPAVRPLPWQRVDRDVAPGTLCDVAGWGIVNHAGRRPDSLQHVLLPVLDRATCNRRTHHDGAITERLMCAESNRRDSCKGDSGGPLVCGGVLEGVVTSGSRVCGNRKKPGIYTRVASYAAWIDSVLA

| Compound | IC50 [nM] |
| --- | --- |
| Nc1ncnc2c1ncn2CC(=O)N1CCS[C@H]1C(=O)NCc1cccc(Cl)c1F [Compound 105b, (S)-3-(2-(6-amino-9H-purin-9-yl)acetyl)-N-(3-chloro-2-fluorobenzyl)thiazolidine-2-carboxamide] | 100 to 1000 |
| C[C@@H]1C[C@@H](C(=O)Nc2cccc(Br)n2)N(C(=O)Cn2c3ccc(C(F)(F)F)cc3c3c(N)ncnc32)C1 [Compound 206c, (2S,4R)-1-(2-(4-amino-6-(trifluoromethyl)-9H-pyrimido[4,5-b]indol-9-yl)acetyl)-N-(6-bromopyridin-2-yl)-4-methylpyrrolidine-2-carboxamide] | 100 to 1000 |
| C[C@@]12C[C@@H](C(=O)Nc3cccc(Br)n3)N(C(=O)Cn3c4ncnc(N)c4c4cccc(C(F)(F)F)c43)[C@@H]1C2 [Compound 175a, (1R,3S,5R)-2-(2-(4-amino-8-(trifluoromethyl)-9H-pyrimido[4,5-b]indol-9-yl)acetyl)-N-(6-bromopyridin-2-yl)-5-methyl-2-azabicyclo[3.1.0]hexane-3-carboxamide] | > 1000 |
| NCCNc1ncnc2c1ncn2CC(=O)N1C[C@H](F)C[C@H]1C(=O)NCc1cccc(Cl)c1F [Compound 123g, (2S,4R)-1-(2-(6-((2-aminoethyl)amino)-9H-purin-9-yl)acetyl)-N-(3-chloro-2-fluorobenzyl)-4-fluoropyrrolidine-2-carboxamide] | > 1000 |
| Nc1ncnc2c1c1cccnc1n2CC(=O)N1[C@@H]2C[C@@H]2C[C@H]1C(=O)Nc1cccc(Br)n1 [Compound 162g, (1R,3S,5R)-2-(2-(4-amino-9H-pyrido[3′,2′:4,5]pyrrolo[2,3-d]pyrimidin-9-yl)acetyl)-N-(6-bromopyridin-2-yl)-2-azabicyclo[3.1.0]hexane-3-carboxamide] | < 100 |
| C[C@@]12C[C@@H](C(=O)Nc3cccc(Br)n3)N(C(=O)Cn3c4ccc(CCC(=O)O)cc4c4c(N)ncnc43)[C@@H]1C2 [Compound 214b, 3-(4-amino-9-(2-((1R,3S,5R)-3-((6-bromopyridin-2-yl)carbamoyl)-5-methyl-2-azabicyclo[3.1.0]hexan-2-yl)-2-oxoethyl)-9H-pyrimido[4,5-b]indol-6-yl)propanoic acid] | < 100 |
| Cc1ccc2c(n1)c1c(N)ncnc1n2CC(=O)N1[C@@H]2C[C@@H]2C[C@H]1C(=O)Nc1cccc(Br)n1 [Compound 285g, (1R,3S,5R)-2-(2-(4-amino-6-methyl-9H-pyrido[2′,3′:4,5]pyrrolo[2,3-d]pyrimidin-9-yl)acetyl)-N-(6-bromopyridin-2-yl)-2-azabicyclo[3.1.0]hexane-3-carboxamide] | < 100 |
| Nc1ncnc2c1ncn2CC(=O)N1C[C@H](F)C[C@H]1C(=O)NCc1cccc(Cl)c1F [Compound 104a, (2S,4R)-1-(2-(6-amino-9H-purin-9-yl)acetyl)-N-(3-chloro-2-fluorobenzyl)-4-fluoropyrrolidine-2-carboxamide] | < 100 |
| COCc1ccc2c(c1)c1c(N)ncnc1n2CC(=O)N1[C@@H]2C[C@@H]2C[C@H]1C(=O)Nc1cccc(Br)n1 [Compound 339g, (1R,3S,5R)-2-(2-(4-amino-6-(methoxymethyl)-9H-pyrimido[4,5-b]indol-9-yl)acetyl)-N-(6-bromopyridin-2-yl)-2-azabicyclo[3.1.0]hexane-3-carboxamide] | < 100 |
| C[C@@]12C[C@@H](C(=O)Nc3cccc(Br)n3)N(C(=O)Cn3c4ccc(Br)cc4c4c(N)ncnc43)[C@@H]1C2 [Compound 160a, (1R,3S,5R)-2-(2-(4-amino-6-bromo-9H-pyrimido[4,5-b]indol-9-yl)acetyl)-N-(6-bromopyridin-2-yl)-5-methyl-2-azabicyclo[3.1.0]hexane-3-carboxamide] | < 100 |
| Nc1ncnc2c1c1cc(C(F)(F)F)ccc1n2CC(=O)N1[C@@H]2C[C@@H]2C[C@H]1C(=O)Nc1cccc(Br)n1 [Compound 27a, (1R,3S,5R)-2-(2-(4-amino-6-(trifluoromethyl)-9H-pyrimido[4,5-b]indol-9-yl)acetyl)-N-(6-bromopyridin-2-yl)-2-azabicyclo[3.1.0]hexane-3-carboxamide] | < 100 |

Other lines, results leading:

| IC50 [nM] | Compound |
| --- | --- |
| < 100 | COc1ccc2c(c1)c1c(N)ncnc1n2CC(=O)N1[C@@H]2C[C@@H]2C[C@H]1C(=O)Nc1cccc(Br)n1 [Compound 38e, (1R,3S,5R)-2-(2-(4-amino-6-methoxy-9H-pyrimido[4,5-b]indol-9-yl)acetyl)-N-(6-bromopyridin-2-yl)-2-azabicyclo[3.1.0]hexane-3-carboxamide] |
| < 100 | Nc1ncnc2c1c1cc(O)ccc1n2CC(=O)N1[C@@H]2C[C@@H]2C[C@H]1C(=O)Nc1cccc(Br)n1 [Compound 166a, (1R,3S,5R)-2-(2-(4-amino-6-hydroxy-9H-pyrimido[4,5-b]indol-9-yl)acetyl)-N-(6-bromopyridin-2-yl)-2-azabicyclo[3.1.0]hexane-3-carboxamide] |
| < 100 | Cc1cc(-c2ccco2)cc2c3c(N)ncnc3n(CC(=O)N3[C@H](C(=O)Nc4cccc(Br)n4)C[C@@]4(C)C[C@@H]34)c12 [Compound 359c, (1R,3S,5R)-2-(2-(4-amino-6-(furan-2-yl)-8-methyl-9H-pyrimido[4,5-b]indol-9-yl)acetyl)-N-(6-bromopyridin-2-yl)-5-methyl-2-azabicyclo[3.1.0]hexane-3-carboxamide] |
| < 100 | Cc1cc(C(F)(F)F)cc2c3c(N)ncnc3n(CC(=O)N3C[C@](C)(F)C[C@H]3C(=O)Nc3cncc(Br)n3)c12 [Compound 305a, (2S,4R)-1-(2-(4-amino-8-methyl-6-(trifluoromethyl)-9H-pyrimido[4,5-b]indol-9-yl)acetyl)-N-(6-bromopyrazin-2-yl)-4-fluoro-4-methylpyrrolidine-2-carboxamide] |
| < 100 | Cc1cc(-c2ccoc2)cc2c3c(N)ncnc3n(CC(=O)N3[C@@H]4C[C@@H]4C[C@H]3C(=O)Nc3cccc(Br)n3)c12 [Compound 352c, (1R,3S,5R)-2-(2-(4-amino-6-(furan-3-yl)-8-methyl-9H-pyrimido[4,5-b]indol-9-yl)acetyl)-N-(6-bromopyridin-2-yl)-2-azabicyclo[3.1.0]hexane-3-carboxamide] |
| < 100 | Cc1ccc(Br)nc1NC(=O)[C@@H]1C[C@H]2C[C@H]2N1C(=O)Cn1c2ccccc2c2c(N)ncnc21 [Compound 1e, (1R,3S,5R)-2-(2-(4-amino-9H-pyrimido[4,5-b]indol-9-yl)acetyl)-N-(6-bromo-3-methylpyridin-2-yl)-2-azabicyclo[3.1.0]hexane-3-carboxamide] |
| < 100 | Cc1cc(C(F)(F)F)cc2c3c(N)ncnc3n(CC(=O)N3[C@@H]4C[C@@H]4C[C@H]3C(=O)Nc3cncc(C(F)(F)F)n3)c12 [Compound 348c, (1R,3S,5R)-2-(2-(4-amino-8-methyl-6-(trifluoromethyl)-9H-pyrimido[4,5-b]indol-9-yl)acetyl)-N-(6-(trifluoromethyl)pyrazin-2-yl)-2-azabicyclo[3.1.0]hexane-3-carboxamide] |
| < 100 | Cc1cc(O)cc2c3c(N)ncnc3n(CC(=O)N3[C@H](C(=O)Nc4cccc(Br)n4)C[C@@]4(C)C[C@@H]34)c12 [Compound 265a, (1R,3S,5R)-2-(2-(4-amino-6-hydroxy-8-methyl-9H-pyrimido[4,5-b]indol-9-yl)acetyl)-N-(6-bromopyridin-2-yl)-5-methyl-2-azabicyclo[3.1.0]hexane-3-carboxamide] |
